Reference: patent publication US9079901B2, “Fused heterocyclic compounds as ion channel modulators” (Gilead Sciences, Inc., priority 2010, dated 2015)

Molecular target: wild-type human cardiac sodium channel, hNav1.5 (late sodium current) in HEK293 cells (Homo sapiens, UniProt Q14524)
Experiment: Late INa screening assay (automated whole-cell patch clamp, PatchXpress)
Format: cell-based
Settings: HEK293, compound at 1 μM; late INa generated with 10 μM Tefluthrin (or 50 nM ATX II); HEK293 hNav1.5; read-out: Late INa 1 μM (percent block of late INa)
How it was run: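 Percent block was derived from mean current 225–250 ms into a 250 ms depolarisation to −20 mV (holding −120 mV, every 10 s), normalised to the current left in Na-free solution. Whole-cell recordings came from HEK293 cells stably expressing α-subunit-only hNav1.5, at 24–27 °C. Late current was enhanced with 10 μM tefluthrin or 50 nM ATX II, then compound (typically 10 μM) was added three times over 7–8 min.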

Sequence of wild-type human cardiac sodium channel, hNav1.5 (late sodium current) in HEK293 cells (Q14524 whole entry): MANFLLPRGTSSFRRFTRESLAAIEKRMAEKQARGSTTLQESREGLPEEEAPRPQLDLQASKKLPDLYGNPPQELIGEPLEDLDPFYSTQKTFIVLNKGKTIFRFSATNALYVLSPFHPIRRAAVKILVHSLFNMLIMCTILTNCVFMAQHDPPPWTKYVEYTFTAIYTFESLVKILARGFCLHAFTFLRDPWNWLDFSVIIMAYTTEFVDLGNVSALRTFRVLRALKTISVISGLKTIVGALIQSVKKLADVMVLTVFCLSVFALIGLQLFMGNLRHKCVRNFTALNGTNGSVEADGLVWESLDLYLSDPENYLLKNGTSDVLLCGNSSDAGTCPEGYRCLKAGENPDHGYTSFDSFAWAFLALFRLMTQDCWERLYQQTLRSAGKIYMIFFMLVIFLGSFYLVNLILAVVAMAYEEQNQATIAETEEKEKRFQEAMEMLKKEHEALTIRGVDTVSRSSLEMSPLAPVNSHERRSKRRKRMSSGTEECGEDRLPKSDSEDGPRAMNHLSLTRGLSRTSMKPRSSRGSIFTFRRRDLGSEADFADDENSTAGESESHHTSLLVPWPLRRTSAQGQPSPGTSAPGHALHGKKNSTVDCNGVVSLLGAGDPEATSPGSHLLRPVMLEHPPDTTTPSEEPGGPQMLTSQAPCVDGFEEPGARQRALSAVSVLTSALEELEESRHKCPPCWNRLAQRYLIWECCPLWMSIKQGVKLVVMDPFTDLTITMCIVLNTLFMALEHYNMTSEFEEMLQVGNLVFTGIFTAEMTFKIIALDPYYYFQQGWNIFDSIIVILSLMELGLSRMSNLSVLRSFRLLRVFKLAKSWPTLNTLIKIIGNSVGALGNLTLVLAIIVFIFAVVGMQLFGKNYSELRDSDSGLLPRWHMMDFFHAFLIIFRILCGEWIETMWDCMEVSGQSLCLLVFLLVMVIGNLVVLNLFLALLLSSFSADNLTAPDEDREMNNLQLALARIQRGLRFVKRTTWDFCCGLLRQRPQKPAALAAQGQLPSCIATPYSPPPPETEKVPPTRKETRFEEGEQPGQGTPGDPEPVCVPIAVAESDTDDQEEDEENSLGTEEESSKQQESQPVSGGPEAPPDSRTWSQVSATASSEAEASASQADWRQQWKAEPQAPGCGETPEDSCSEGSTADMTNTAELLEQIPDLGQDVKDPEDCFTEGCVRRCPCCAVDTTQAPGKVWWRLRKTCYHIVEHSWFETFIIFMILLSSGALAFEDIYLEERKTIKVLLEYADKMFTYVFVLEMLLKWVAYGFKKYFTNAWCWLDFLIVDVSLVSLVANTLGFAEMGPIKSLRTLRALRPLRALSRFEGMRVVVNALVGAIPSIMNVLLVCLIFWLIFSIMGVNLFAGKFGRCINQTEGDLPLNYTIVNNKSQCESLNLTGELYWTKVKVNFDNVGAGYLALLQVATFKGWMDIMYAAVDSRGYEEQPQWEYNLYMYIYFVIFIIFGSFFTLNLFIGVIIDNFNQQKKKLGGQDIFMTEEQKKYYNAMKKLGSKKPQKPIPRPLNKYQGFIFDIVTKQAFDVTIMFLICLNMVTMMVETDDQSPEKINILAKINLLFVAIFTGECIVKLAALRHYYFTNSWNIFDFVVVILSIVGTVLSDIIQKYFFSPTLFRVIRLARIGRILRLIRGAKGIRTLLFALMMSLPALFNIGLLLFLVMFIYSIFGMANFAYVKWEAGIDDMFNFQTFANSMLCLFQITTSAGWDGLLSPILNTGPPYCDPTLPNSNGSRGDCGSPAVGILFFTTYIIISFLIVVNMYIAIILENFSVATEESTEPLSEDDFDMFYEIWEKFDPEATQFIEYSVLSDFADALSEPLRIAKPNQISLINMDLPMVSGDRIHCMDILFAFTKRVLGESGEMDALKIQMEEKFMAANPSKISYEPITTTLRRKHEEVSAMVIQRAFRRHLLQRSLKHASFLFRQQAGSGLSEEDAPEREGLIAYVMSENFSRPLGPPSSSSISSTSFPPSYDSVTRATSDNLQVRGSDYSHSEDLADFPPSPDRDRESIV

Structure (SMILES) | inhibition at 1 µM [%]
O=c1n(CCOc2cnc(Cl)nc2)nc2ccc(-c3ccc(OC(F)(F)F)cc3)cn12 [compound 139, 2-(2-(2-chloropyrimidin-5-yloxy)ethyl)-6-(4-(trifluoromethoxy)phenyl)-[1,2,4]triazolo[4,3-a]pyridin-3(2H)-one] | 20.2
Cc1coc(Cn2nc3ccc(-c4ccc(C(F)(F)F)cc4)cn3c2=O)n1 [compound 192, 2-((4-methyloxazol-2-yl)methyl)-6-(4-(trifluoromethyl)phenyl)-[1,2,4]triazolo[4,3-a]pyridin-3(2H)-one] | 34.4
O=c1n(CCOc2ncc(Cl)cn2)nc2ccc(-c3ccc(OC(F)(F)F)cc3)cn12 [compound 92, 2-(2-(5-chloropyrimidin-2-yloxy)ethyl)-6-(4-(trifluoromethoxy)phenyl)-[1,2,4]triazolo[4,3-a]pyridin-3(2H)-one] | 35.3
O=c1n(Cc2ccccn2)nc2ccc(-c3ccc(OC(F)(F)F)cc3)cn12 [compound 16, 2-(pyridin-2-ylmethyl)-6-(4-(trifluoromethoxy)phenyl)-[1,2,4]triazolo[4,3-a]pyridin-3(2H)-one] | 11.5
O=c1n(CCc2cnccn2)nc2ccc(-c3ccc(OC(F)(F)F)cc3)cn12 [compound 114, 2-(2-(pyrazin-2-yl)ethyl)-6-(4-(trifluoromethoxy)phenyl)-[1,2,4]triazolo[4,3-a]pyridin-3(2H)-one] | 14.4
O=c1n(CCOc2nccn3ccnc23)nc2ccc(-c3ccc(OC(F)(F)F)cc3)cn12 [compound 174, 2-(2-(imidazo[1,2-a]pyrazin-8-yloxy)ethyl)-6-(4-(trifluoromethoxy)phenyl)-[1,2,4]triazolo[4,3-a]pyridin-3(2H)-one] | 26.3
Cc1noc(Cn2nc3ccc(-c4ccc(C(F)(F)F)cc4)cn3c2=O)n1 [compound 137, 2-((3-methyl-1,2,4-oxadiazol-5-yl)methyl)-6-(4-(trifluoromethyl)phenyl)-[1,2,4]triazolo[4,3-a]pyridin-3(2H)-one] | 28.8
COc1nc(OCCn2nc3ccc(-c4ccc(OC(F)(F)F)cc4)cn3c2=O)ncc1Cl [compound 130, 2-(2-(5-chloro-4-methoxypyrimidin-2-yloxy)ethyl)-6-(4-(trifluoromethoxy)phenyl)-[1,2,4]triazolo[4,3-a]pyridin-3(2H)-one] | 32.4
COC(COc1ccccc1Cl)Cn1nc2ccc(-c3ccc(OC(F)(F)F)cc3)cn2c1=O (stereo not drawn) [compound 80, 2-(3-(2-chlorophenoxy)-2-methoxypropyl)-6-(4-(trifluoromethoxy)phenyl)-[1,2,4]triazolo[4,3-a]pyridin-3(2H)-one] | 33.4
CCOc1ccccc1OCc1nc(Cn2nc3ccc(-c4ccc(OC(F)(F)F)cc4)cn3c2=O)no1 [compound 176, 2-((5-((2-ethoxyphenoxy)methyl)-1,2,4-oxadiazol-3-yl)methyl)-6-(4-(trifluoromethoxy)phenyl)-[1,2,4]triazolo[4,3-a]pyridin-3(2H)-one] | 25.5
COCc1nc(Cn2nc3ccc(-c4ccc(OC(F)(F)F)cc4)cn3c2=O)no1 [compound 128, 2-((5-(methoxymethyl)-1,2,4-oxadiazol-3-yl)methyl)-6-(4-(trifluoromethoxy)phenyl)-[1,2,4]triazolo[4,3-a]pyridin-3(2H)-one] | 22
Cc1cnc(Cn2nc3ccc(-c4ccc(C(F)(F)F)cc4)cn3c2=O)o1 [compound 172, 2-((5-methyloxazol-2-yl)methyl)-6-(4-(trifluoromethyl)phenyl)-[1,2,4]triazolo[4,3-a]pyridin-3(2H)-one] | 24.8
O=c1n(CCOc2nccn3cccc23)nc2ccc(-c3ccc(OC(F)(F)F)cc3)cn12 [compound 135, 2-(2-(pyrrolo[1,2-a]pyrazin-1-yloxy)ethyl)-6-(4-(trifluoromethoxy)phenyl)-[1,2,4]triazolo[4,3-a]pyridin-3(2H)-one] | 41.5
O=c1n(CCOc2nccc(OCC(F)(F)F)n2)nc2ccc(-c3ccc(OC(F)(F)F)cc3)cn12 [compound 178, 2-(2-(4-(2,2,2-trifluoroethoxy)pyrimidin-2-yloxy)ethyl)-6-(4-(trifluoromethoxy)phenyl)-[1,2,4]triazolo[4,3-a]pyridin-3(2H)-one] | 14.2
Cc1oc(-c2ccccc2)nc1Cn1nc2ccc(-c3ccc(OC(F)(F)F)cc3)cn2c1=O [compound 21, 2-((5-methyl-2-phenyloxazol-4-yl)methyl)-6-(4-(trifluoromethoxy)phenyl)-[1,2,4]triazolo[4,3-a]pyridin-3(2H)-one] | 11
Cc1noc(Cn2nc3ccc(-c4ccc(Cl)cc4)cn3c2=O)n1 [compound 149, 6-(4-chlorophenyl)-2-((3-methyl-1,2,4-oxadiazol-5-yl)methyl)-[1,2,4]triazolo[4,3-a]pyridin-3(2H)-one] | 26.2
O=c1n(Cc2ccc(OC(F)(F)F)cc2)nc2ccc(-c3ccc(OC(F)(F)F)cc3)cn12 [compound 12, 2-(4-(trifluoromethoxy)benzyl)-6-(4-(trifluoromethoxy)phenyl)-[1,2,4]triazolo[4,3-a]pyridin-3(2H)-one] | 11.1

Structure (SMILES) | inhibition at 1 µM [%]
Cc1coc(Cn2nc3ccc(-c4ccc(OC(F)(F)F)cc4)cn3c2=O)n1 [compound 191, 2-((4-methyloxazol-2-yl)methyl)-6-(4-(trifluoromethoxy)phenyl)-[1,2,4]triazolo[4,3-a]pyridin-3(2H)-one] | 28.9
Cn1nc2ccc(-c3ccc(OC(F)(F)F)cc3)cn2c1=O [compound 201, 2-methyl-6-(4-(trifluoromethoxy)phenyl)-[1,2,4]triazolo[4,3-a]pyridin-3(2H)-one] | 38.7
Cc1ccnc(CCn2nc3ccc(-c4ccc(OC(F)(F)F)cc4)cn3c2=O)c1 [compound 58, 2-(2-(4-methylpyridin-2-yl)ethyl)-6-(4-(trifluoromethoxy)phenyl)-[1,2,4]triazolo[4,3-a]pyridin-3(2H)-one] | 14.9
O=c1n(CCOc2cccnn2)nc2ccc(-c3ccc(OC(F)(F)F)cc3)cn12 [compound 81, 2-(2-(pyridazin-3-yloxy)ethyl)-6-(4-(trifluoromethoxy)phenyl)-[1,2,4]triazolo[4,3-a]pyridin-3(2H)-one] | 11
COc1c(-c2ccc(OC(F)(F)F)cc2)ccc2nn(Cc3nc(C)no3)c(=O)n12 [compound 30, 5-methoxy-2-((3-methyl-1,2,4-oxadiazol-5-yl)methyl)-6-(4-(trifluoromethoxy)phenyl)-[1,2,4]triazolo[4,3-a]pyridin-3(2H)-one] | 18.2
O=c1n(CCn2cc(Cl)cn2)nc2ccc(-c3ccc(OC(F)(F)F)cc3)cn12 [compound 41, 2-(2-(4-chloro-1H-pyrazol-1-yl)ethyl)-6-(4-(trifluoromethoxy)phenyl)-[1,2,4]triazolo[4,3-a]pyridin-3(2H)-one] | 12.2
Cc1ncc(Cn2nc3ccc(-c4ccc(C(F)(F)F)cc4)cn3c2=O)o1 [compound 197, 2-((2-methyloxazol-5-yl)methyl)-6-(4-(trifluoromethyl)phenyl)-[1,2,4]triazolo[4,3-a]pyridin-3(2H)-one] | 19.7
O=c1n(Cc2noc(CCl)n2)nc2ccc(-c3ccc(OC(F)(F)F)cc3)cn12 [compound 157, 2-((5-(chloromethyl)-1,2,4-oxadiazol-3-yl)methyl)-6-(4-(trifluoromethoxy)phenyl)-[1,2,4]triazolo[4,3-a]pyridin-3(2H)-one] | 22.7
CC(C)n1nc2ccc(-c3ccc(OC(F)(F)F)cc3)cn2c1=O [compound 190, 2-isopropyl-6-(4-(trifluoromethoxy)phenyl)-[1,2,4]triazolo[4,3-a]pyridin-3(2H)-one] | 17.6
O=c1n(CCOc2ncc(F)cn2)nc2ccc(-c3ccc(OC(F)(F)F)cc3)cn12 [compound 138, 2-(2-(5-fluoropyrimidin-2-yloxy)ethyl)-6-(4-(trifluoromethoxy)phenyl)-[1,2,4]triazolo[4,3-a]pyridin-3(2H)-one] | 32.4
O=c1n(CCOc2nccc(OCC3CC3)n2)nc2ccc(-c3ccc(OC(F)(F)F)cc3)cn12 [compound 179, 2-(2-(4-(cyclopropylmethoxy)pyrimidin-2-yloxy)ethyl)-6-(4-(trifluoromethoxy)phenyl)-[1,2,4]triazolo[4,3-a]pyridin-3(2H)-one] | 30.3
CCOc1ccnc(OC2COCC2n2nc3ccc(-c4ccc(OC(F)(F)F)cc4)cn3c2=O)n1 (stereo not drawn) [compound 125, 2-(4-(4-ethoxypyrimidin-2-yloxy)tetrahydrofuran-3-yl)-6-(4-(trifluoromethoxy)phenyl)-[1,2,4]triazolo[4,3-a]pyridin-3(2H)-one] | 14.1
O=c1n(CCc2ccc(F)cc2)nc2ccc(-c3ccc(OC(F)(F)F)cc3)cn12 [compound 59, 2-(4-fluorophenethyl)-6-(4-(trifluoromethoxy)phenyl)-[1,2,4]triazolo[4,3-a]pyridin-3(2H)-one] | 27.1
O=c1n(CCOc2ncccn2)nc2ccc(-c3ccc(Oc4ccc(Cl)cc4)cc3)cn12 [compound 120, 6-(4-(4-chlorophenoxy)phenyl)-2-(2-(pyrimidin-2-yloxy)ethyl)-[1,2,4]triazolo[4,3-a]pyridin-3(2H)-one] | 73.9
O=c1n(CC(F)(F)F)nc2ccc(-c3ccc(OC(F)(F)F)cc3)cn12 [compound 189, 2-(2,2,2-trifluoroethyl)-6-(4-(trifluoromethoxy)phenyl)-[1,2,4]triazolo[4,3-a]pyridin-3(2H)-one] | 15.3
O=c1n(CCCOc2ccccc2Cl)nc2ccc(-c3ccc(OC(F)(F)F)cc3)cn12 [compound 52, 2-(3-(2-chlorophenoxy)propyl)-6-(4-(trifluoromethoxy)phenyl)-[1,2,4]triazolo[4,3-a]pyridin-3(2H)-one] | 33.3
